How the values were obtained:
Experiment in all cases: relative viability (nuclei count vs DMSO), 5 days (fraction); higher = more cells survive
[1] = compound: C#Cc1cccc(Nc2ncnc3cc(OCCOC)c(OCCOC)cc23)c1 [Erlotinib] + CC(=O)Nc1cccc(-n2c(=O)n(C3CC3)c(=O)c3c(Nc4ccc(I)cc4F)n(C)c(=O)c(C)c32)c1 [Trametinib] (partner 0.02 µM)
In short: (§1)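 Lung cancer cell lines were seeded in 1536-well plates and dosed by pin tool the next day, with either a single drug or a fixed anchor-drug dose combined with five library-drug doses (not always all listed) spaced in √10 steps. Five days later, one step fixed the cells and stained their nuclei (final 0.05% Triton X-100, 1% formaldehyde, 1 ug/ml Hoechst), and nuclei were counted on 4× images. Relative viability is the nuclei count in treated wells divided by the count in vehicle wells, and each value is the median of duplicate plates.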

[2] = compound: C#Cc1cccc(Nc2ncnc3cc(OCCOC)c(OCCOC)cc23)c1 [Erlotinib] + NC(=O)Nc1cc(-c2cccc(F)c2)sc1C(=O)N[C@H]1CCCNC1 [AZD7762] (partner 0.2 µM)
In short: as §1

[3] = compound: O=C(Nc1c[nH]nc1-c1nc2ccc(CN3CCOCC3)cc2[nH]1)NC1CC1 [AT9283] + CC(C)C[C@H](NC(=O)[C@H](Cc1ccccc1)NC(=O)c1cnccn1)B(O)O [Bortezomib] (partner 0.002 µM)
In short: as §1

[4] = compound: O=C(Nc1c[nH]nc1-c1nc2ccc(CN3CCOCC3)cc2[nH]1)NC1CC1 [AT9283] + CS(=O)(=O)N1CCN(Cc2cc3nc(-c4cccc5[nH]ncc45)nc(N4CCOCC4)c3s2)CC1 [Pictilisib] (partner 1 µM)
In short: as §1

[5] = compound: O=C(Nc1c[nH]nc1-c1nc2ccc(CN3CCOCC3)cc2[nH]1)NC1CC1 [AT9283] + Cc1cc(Nc2cc(N3CCN(C)CC3)nc(Sc3ccc(NC(=O)C4CC4)cc3)n2)n[nH]1 [Tozasertib] (partner 0.1 µM)
In short: as §1

Cell Line	relative viability ([1]; first compound 0.02 µM)	relative viability ([1]; first compound 0.2 µM)	relative viability ([1]; first compound 0.6325 µM)	relative viability ([1]; first compound 2 µM)	relative viability ([2]; first compound 0.02 µM)	relative viability ([2]; first compound 0.2 µM)	relative viability ([2]; first compound 0.6325 µM)	relative viability ([2]; first compound 2 µM)	relative viability ([3]; first compound 0.003 µM)	relative viability ([3]; first compound 0.03 µM)	relative viability ([3]; first compound 0.09487 µM)	relative viability ([3]; first compound 0.3 µM)	relative viability ([4]; first compound 0.003 µM)	relative viability ([4]; first compound 0.03 µM)	relative viability ([4]; first compound 0.09487 µM)	relative viability ([4]; first compound 0.3 µM)	relative viability ([5]; first compound 0.003 µM)	relative viability ([5]; first compound 0.03 µM)	relative viability ([5]; first compound 0.09487 µM)	relative viability ([5]; first compound 0.3 µM)
NCI-H460	0.104	0.129	0.131	0.0721	0.613	0.734	0.631	0.629	0.922	0.905	0.257	0.032	0.305	0.302	0.0565	0.0907	0.388	0.198	0.0277	0.0528
HCC-44	1.07	1.01	1.1	0.981	1.01	1.02	0.984	0.96	0.814	0.833	0.548	0.399	0.598	0.627	0.151	0.123	0.94	0.621	0.294	0.321
NCI-H2087	0.219	0.185	0.19	0.138	1.4	1.33	1.29	1.17	0.753	0.626	0.447	0.23	0.677	0.413	0.21	0.208	0.24	0.192	0.189	0.148
UMC-11	0.738	0.637	0.916	0.71					0.465	0.108	0.0924	0.129	0.805	0.114	0.111	0.191	0.19	0.221	0.207	0.21
NCI-H1355	0.424	0.332	0.326	0.302	0.794	0.687	0.674	0.682	1.15	1.13	1.23	0.287	0.435	0.345	0.168	0.159	0.518	0.464	0.224	0.218
H3255	0.632	0.412	0.326	0.214	0.794	0.619	0.516	0.238	0.632	0.719	0.542	0.172	0.448	0.461	0.213	0.148	0.664	0.358	0.2	0.161
IA-LM									0.748	0.367	0.112	0.0951	0.379	0.271	0.143	0.143				
COR-L 105	0.455	0.336	0.415	0.362					0.758	0.303	0.352	0.249	0.405	0.273	0.279	0.28	0.384	0.318	0.283	0.288
ABC-1					0.789		0.647	0.507	1.05	0.261	0.117	0.283	0.76	0.269	0.232	0.256	0.198	0.17	0.172	0.183
NCI-H1792	0.435	0.423	0.47	0.446	0.904	0.465	0.6	0.469	0.918	0.985	0.961	0.701	0.215	0.334	0.0902	0.0932				
NCI-H2170	0.884	0.924	0.977	0.773	0.862	0.737	0.54	0.35					0.309	0.234	0.176	0.151	0.748	0.276	0.164	0.157
NCI-H1395	1.1	0.993	1.02	0.989	0.421	0.367	0.338	0.407					0.583	0.474	0.388	0.399	0.61	0.553	0.399	0.355
NCI-H522	0.665	0.697	0.705	0.676	0.812	0.893	1.02	0.833									0.545	0.576	0.56	0.557
Calu-6									0.956	0.297	0.272	0.254	0.932	0.242	0.227	0.194				
NCI-H2009	0.385	0.306	0.301	0.239					1.01	0.639	0.363	0.233	0.774	0.462	0.239	0.0896	0.737	0.514	0.399	0.226
EBC-1									0.526	0.239	0.172	0.169	0.368	0.158	0.149	0.124				
LK-2	0.867	0.543	0.842	0.586	0.376	0.366	0.438	0.268					0.602	0.22	0.219	0.248	0.174	0.225	0.172	0.209
SK-LU-1	0.495		0.566	0.434					1.21	1.02	0.646	0.279	0.603	0.348	0.217	0.197	0.359	0.301	0.253	0.267
NCI-H1623																	0.411	0.408	0.357	0.389

Cell Line	relative viability ([1]; first compound 0.02 µM)	relative viability ([1]; first compound 0.2 µM)	relative viability ([1]; first compound 0.6325 µM)	relative viability ([1]; first compound 2 µM)	relative viability ([2]; first compound 0.02 µM)	relative viability ([2]; first compound 0.2 µM)	relative viability ([2]; first compound 0.6325 µM)	relative viability ([2]; first compound 2 µM)	relative viability ([3]; first compound 0.003 µM)	relative viability ([3]; first compound 0.03 µM)	relative viability ([3]; first compound 0.09487 µM)	relative viability ([3]; first compound 0.3 µM)	relative viability ([4]; first compound 0.003 µM)	relative viability ([4]; first compound 0.03 µM)	relative viability ([4]; first compound 0.09487 µM)	relative viability ([4]; first compound 0.3 µM)	relative viability ([5]; first compound 0.003 µM)	relative viability ([5]; first compound 0.03 µM)	relative viability ([5]; first compound 0.09487 µM)	relative viability ([5]; first compound 0.3 µM)
SW 900	0.867	0.761	0.771	0.631	0.783	0.52	0.557	0.443									0.476	0.526	0.359	0.307
COR-L23	0.67	0.636	0.617	0.545					1.05	0.664	0.23	0.152	0.83	0.132	0.107	0.123	0.278	0.135	0.112	0.132
A549													0.503	0.0938	0.0787	0.0772				
NCI-H1563									0.859	0.79	0.822	0.703	0.572	0.606	0.585	0.54				
SW 1573	0.568	0.557	0.526	0.474					1.04	0.304	0.279	0.236	0.453	0.251	0.2	0.127	0.204	0.192	0.211	0.112
NCI-H1650	0.477	0.443	0.561	0.382					0.206	0.222	0.231	0.215	0.586	0.273	0.178	0.218	0.386	0.328	0.36	0.35
SK-MES-1	0.494	0.345	0.347	0.312									0.345	0.314	0.158	0.147	1	0.679	0.254	0.125
NCI-H2023	0.558	0.369	0.418	0.32					1	0.918	0.174	0.123	0.216	0.106	0.0878	0.111	0.388	0.232	0.19	0.18
NCI-H661	0.601	0.483	0.593	0.457					0.779	0.531	0.338	0.346	0.296	0.382	0.334	0.292	0.347	0.344	0.389	0.37
NCI-H2342	1.14	0.814	0.803	0.74	0.453	0.566	0.502										0.555	0.453	0.403	0.344
NCI-H1944	0.385	0.326	0.361	0.295	0.541	0.419	0.538	0.387					0.327	0.307	0.221	0.224	0.256	0.257	0.23	0.224
NCI-H1703					0.113	0.133	0.142	0.115	0.452	0.196	0.141	0.169	0.234	0.216	0.205	0.196				
NCI-H2228	0.436	0.708	0.49	0.381					1.04	0.529	0.118	0.176	0.355	0.259	0.141	0.0664	0.333	0.199	0.142	0.138
NCI-H1299									1.07	1.02	0.437	0.395	0.731	0.238	0.116	0.112				
NCI-H358	0.143	0.114	0.12	0.105	0.537	0.361	0.429	0.201					0.278	0.171	0.141	0.132	0.108	0.0953	0.107	0.0809
NCI-H1648	0.5	0.313	0.348	0.289		0.649	0.64	0.465									0.456	0.343	0.329	0.258
NCI-H520	0.689	0.666	0.744	0.687					0.574	0.241	0.182	0.168	0.259	0.247	0.216	0.171	0.48	0.435	0.423	0.251
NCI-H1793	0.472	0.411	0.411	0.334	0.683	0.31	0.438	0.258					0.317	0.331	0.183	0.196	0.327	0.383	0.201	0.171

From the supplement of paper PMC10307832
